# In patent US8163909B2, “Substituted hydroxyethyl amine compounds as beta-secretase modulators and methods of use” (Amgen Inc., priority 2007, dated 2012):
# Where two headings read alike, the source gives them in different places.
# Tests used:
# CYP2D6 = CYP2D6 (Homo sapiens, UniProt P10635); experiment: CYP2D6 inhibition assay (bufuralol, pooled human liver microsomes)
# [1] = molecular target: Beta Secretase enzyme (BACE) (Homo sapiens, UniProt P56817); experiment: In vitro enzymatic BACE FRET (fluorescence resonance energy transfer) assay; assay type: biochemical;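 further: fluorescence read after 1 h with 50 nM quenched peptide substrate spanning the BACE cleavage site, in pH 4.2 acetate buffer containing 10% DMSO and nonionic detergent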
# Beta Secretase enzyme (BACE), sequence (P56817 46-501): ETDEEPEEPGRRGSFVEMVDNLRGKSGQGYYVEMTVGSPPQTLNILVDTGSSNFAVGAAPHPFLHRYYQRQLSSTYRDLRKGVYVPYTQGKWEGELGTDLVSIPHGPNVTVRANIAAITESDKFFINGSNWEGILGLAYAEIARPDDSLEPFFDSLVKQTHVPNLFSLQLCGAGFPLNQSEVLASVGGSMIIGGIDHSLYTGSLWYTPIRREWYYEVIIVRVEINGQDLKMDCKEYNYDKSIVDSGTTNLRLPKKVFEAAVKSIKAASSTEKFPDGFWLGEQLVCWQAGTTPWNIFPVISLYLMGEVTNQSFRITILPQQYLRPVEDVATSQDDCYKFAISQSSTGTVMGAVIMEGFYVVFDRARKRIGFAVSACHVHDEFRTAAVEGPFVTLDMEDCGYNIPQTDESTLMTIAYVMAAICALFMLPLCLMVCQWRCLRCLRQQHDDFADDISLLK
# [2] = tested on: Aβ40 in conditioned medium of cells stably expressing Amyloid Precursor Protein (APP); experiment: In vitro BACE cell-based assay (Aβ40 in conditioned medium, sandwich ELISA); conditions: Homo sapiens;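 further: compounds added as a dilution series, secreted peptide quantified by europium time-resolved fluorescence readout, potency fitted from percent of control versus compound concentration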
# CYP3A4 (CYP3A) = CYP3A4 (CYP3A) (Homo sapiens, UniProt P08684); experiment: in vitro; conditions: microsomes, pH 7.4;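 further: inhibition of CYP3A-mediated 1-hydroxymidazolam formation after 10 min incubation with NADPH, quantified by HPLC MS relative to metabolite produced without test compound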
# CYP3A4 (CYP3A), sequence (P08684 2-503): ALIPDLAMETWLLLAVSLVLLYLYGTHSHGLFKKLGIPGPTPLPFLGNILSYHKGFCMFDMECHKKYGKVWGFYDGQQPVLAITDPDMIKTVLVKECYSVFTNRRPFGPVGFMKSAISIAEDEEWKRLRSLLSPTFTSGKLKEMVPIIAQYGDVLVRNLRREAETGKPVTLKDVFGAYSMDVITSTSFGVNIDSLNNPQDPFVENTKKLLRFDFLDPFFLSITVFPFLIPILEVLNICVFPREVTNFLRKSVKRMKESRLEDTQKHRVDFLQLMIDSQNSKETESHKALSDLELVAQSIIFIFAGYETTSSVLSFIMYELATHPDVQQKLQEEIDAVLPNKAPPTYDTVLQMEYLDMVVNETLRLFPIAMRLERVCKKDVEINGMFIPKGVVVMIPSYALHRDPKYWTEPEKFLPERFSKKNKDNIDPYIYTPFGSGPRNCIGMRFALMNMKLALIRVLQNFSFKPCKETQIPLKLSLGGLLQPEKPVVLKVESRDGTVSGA
# [3] = Microsomal stability assay, rat liver microsomes;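 further: rat liver microsomes (0.25 mg/mL) with about 1 µM compound plus 1 mM NADPH, pH 7.4, 37 °C for 30 min, parent left measured by LC-MS/MS against 0 min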
# [4] = Microsomal stability assay, human liver microsomes;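 further: pooled human liver microsomes at 0.25 mg/mL with 1 µM compound and NADPH at 37 °C, pH 7.4, for 30 min, unchanged parent quantified by LC-MS/MS against the 0 min sample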
# [5] = 2D6 IC50, CYP enzyme inhibition
# [6] = Table 2, read-out: BACE1 FRET assay
# [7] = HEK293, Table 2, HEK cells, read-out: HEK cell assay
# [8] = 2D6 IC50 (uM), CYP enzyme inhibition
# [9] = read-out: BACE1 FRET assay (IC50)
# [10] = HEK293, HEK cells, read-out: HEK cell assay (IC50)
# [11] = HEK293, HEK cell-based assay, IC50's in uM, read-out: HEK cell assay
# [12] = BACE enzyme assay, IC50's in uM, read-out: BACE1 FRET assay
# [13] = HEK293, cell-based assay, HEK cells, IC50's in uM, read-out: HEK cell assay
# CYP2D6, sequence (P10635 whole entry): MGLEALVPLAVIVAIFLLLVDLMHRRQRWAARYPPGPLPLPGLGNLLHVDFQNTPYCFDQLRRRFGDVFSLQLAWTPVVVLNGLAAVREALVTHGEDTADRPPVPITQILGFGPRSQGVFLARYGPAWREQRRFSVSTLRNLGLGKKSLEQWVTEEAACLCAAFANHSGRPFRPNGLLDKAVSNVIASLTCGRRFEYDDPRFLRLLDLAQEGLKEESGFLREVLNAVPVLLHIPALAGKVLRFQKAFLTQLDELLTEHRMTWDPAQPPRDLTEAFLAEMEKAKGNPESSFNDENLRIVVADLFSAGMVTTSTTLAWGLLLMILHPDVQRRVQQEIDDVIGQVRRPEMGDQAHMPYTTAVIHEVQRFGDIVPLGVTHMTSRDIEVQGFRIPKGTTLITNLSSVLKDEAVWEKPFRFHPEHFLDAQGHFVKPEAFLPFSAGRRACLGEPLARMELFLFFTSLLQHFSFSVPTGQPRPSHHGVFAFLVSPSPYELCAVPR
SMILES,IC50 (CYP2D6; [5]) [µM],IC50 (CYP3A4 (CYP3A)) [nM],RLM ([3]; rat liver microsomal data) [µL/min/mg],HLM ([4]; human liver microsomal data) [µL/min/mg],"IC50 [1, 12] [µM]","IC50 [2, 13] [µM]",other results
COCC(=O)N[C@@H](Cc1ccc2c(c1)OCO2)[C@@H](CN[C@H]1CC2(CCC2)Oc2ncc([C@H](F)C(C)(C)C)cc21)OC [compound 447],14,14000,,,,,"IC50 [1, 6]: 2.64 µM; IC50 [2, 7]: 3.99 µM"
COCC(=O)N[C@@H](Cc1ccc(F)cc1)[C@H](O)CN[C@H]1CC2(CCC2)Oc2c1cc(CC(C)(C)C)nc2-n1ccnc1 [compound 448],1.8,100,79,,,,"IC50 [1, 6]: 0.106 µM; IC50 [2, 7]: 0.153 µM"
COCC(=O)N[C@@H](Cc1ccc(F)cc1)[C@H](O)CN[C@@H]1CC2(CCC2)Oc2c1cc(CC(C)(C)C)nc2-n1ccnc1 [compound 449],0.8,100,163,,,,"IC50 [1, 6]: 2.9 µM; IC50 [2, 7]: 2.97 µM"
CC(C)(C)Cc1cnc2c(c1)[C@@H](NC[C@@H](O)[C@H](Cc1cccc(C#N)c1)NC(=O)c1ncccc1F)CC1(CC(F)(F)C1)O2 [compound 473],2.4,600,775,,,,"IC50 [1, 6]: 0.009 µM; IC50 [2, 7]: 0.063 µM"
COCC(=O)N[C@@H](Cc1cccc(F)c1)[C@H](O)CN[C@H]1CC2(CCC2)Oc2c(-c3ccncc3)cc(CC(C)(C)Cl)cc21 [compound 536],,≥ 27000,,,,,"IC50 (CYP2D6; [8]): ≥ 27 µM; IC50 ([1]; BACE enzyme assay, read-out: BACE1 FRET assay): 0.019 µM; IC50 ([2]; HEK293, HEK cells, read-out: HEK cell assay): 0.011 µM"
COC(OC)C(=O)N[C@@H](Cc1ccc(F)cc1)[C@H](O)CN[C@H]1CC2(CCC2)Oc2ncc(CC(C)(C)C)cc21 [compound 591],,600,,,,,"IC50 (CYP2D6; 2D6 IC50, CYP2D6 inhibition): 10.3 µM; IC50 [1, 9]: 0.01 µM; IC50 [2, 10]: 0.018 µM; RLM ([3]; rat liver microsomes): 375 µL/min/mg"
CC(=O)N[C@@H](Cc1cc(F)cc(F)c1)[C@H](O)CN[C@H]1CC2(CCC2)Oc2c1cc(CC(C)(C)C)nc2Nc1ccccc1 [compound 598],,6900,,,,,"IC50 (CYP2D6; 2D6 IC50, CYP2D6 inhibition): ≥ 27 µM; IC50 [1, 9]: 0.023 µM; IC50 [2, 10]: 0.26 µM; RLM ([3]; rat liver microsomes): 102 µL/min/mg"
COCC(=O)N[C@@H](Cc1ccc(F)cc1)[C@H](O)CN[C@H]1CC2(CCNC2)Oc2cnc(CC(C)(C)C)cc21 (some centres unmarked) [compound 696],,2900,,,,,"IC50 (CYP2D6; 2D6 IC50 (uM), CYP2D6 inhibition): ≥ 27 µM; IC50 ([2]; HEK293, HEK cell-based assay IC50, read-out: HEK cell assay): 0.778 µM; RLM ([3]; rat liver microsomes): 44 µL/min/mg; HLM ([4]; human liver microsomes): 32 µL/min/mg"
CC(C)Cc1cnc2c(c1)[C@@H](NC[C@H](O)[C@@H](Cc1cccc(-c3nccs3)c1)NC(=O)[C@@H]1CCCO1)CC1(CCC1)O2 [compound 796],,200,58,126,,,"IC50 (CYP2D6; [8]): 0.6 µM; IC50 [2, 11]: 0.663 µM"
CCCc1cnc2c(c1)[C@@H](NC[C@H](O)[C@@H](Cc1cc(F)cc(-c3nccs3)c1)NC(=O)[C@@H](C)OC)CC1(CCC1)O2 [compound 815],,200,276,204,,,IC50 (CYP2D6; [8]): 0.6 µM
CO[C@H](C)C(=O)N[C@H](Cc1cc(F)cc(-c2nccs2)c1)[C@@H](O)CN[C@H]1CC2(CCC2)Oc2ncc(Br)cc21 [compound 821],,300,243,162,,,"IC50 (CYP2D6; [8]): 0.5 µM; IC50 [2, 11]: 0.558 µM"
CCCc1cnc2c(c1)[C@@H](NC[C@H](O)[C@@H](Cc1cc(F)cc(-c3nccs3)c1)NC(=O)COC)CC1(CCC1)O2 [compound 833],,300,189,219,,,"IC50 (CYP2D6; [8]): 0.9 µM; IC50 [2, 11]: 2.28 µM"
C#Cc1cc(C#C)cc(C[C@H](NC(=O)COC)[C@H](O)CN[C@H]2CC3(CCC3)Oc3ncc(CC(C)(C)C)cc32)c1 [compound 858],1.1,,88,90,0.005,0.147,
COCC(=O)N[C@@H](Cc1cc(F)cc(-c2nccs2)c1)[C@H](O)CN[C@]1(C)CC2(CCC2)Oc2ncc(CC(C)(C)C)cc21 [compound 867],0.7,,119,66,1.21,1.15,
"C#Cc1cccc(C[C@H](NC(=O)COC)[C@H](O)CN[C@H]2C[C@@]3(CCOC3)Oc3ncc(CC(C)(C)C)cc32)c1 [compound 869, N-((1S,2R)-3-(((3S,4′S)-6′-(2,2-dimethylpropyl)-3′,4,4′,5-tetrahydrospiro[furan-3,2′-pyrano[2,3-b]pyridin]-4′-yl)amino)-1-(3-ethynylbenzyl)-2-hydroxypropyl)-2-methoxyacetamide]",9.5,,55,21,0.006,0.01,
COCC(=O)N[C@@H](Cc1cccc(C(C)=O)c1)[C@H](O)CN[C@H]1CC2(CCC2)Oc2ncc(CC(C)(C)C)cc21 [compound 872],5.7,,278,382,0.007,0.009,
CC(C)(C)Cc1cnc2c(c1)[C@@H](NC[C@@H](O)[C@H](Cc1ccc3c(c1)OCO3)NC(=O)C(C)(C)C)CC1(CCC1)O2 [compound 882],0.5,,103,40,6.25,2.58,
C#Cc1ccc(C[C@H](NC(=O)[C@@H](C)OC)[C@H](O)CN[C@H]2CC3(CCC3)Oc3ncc(CC(C)(C)C)cc32)cc1 [compound 884],3.8,100,55,,0.251,0.097,
CCO[C@@H](C)C(=O)N[C@@H](Cc1ccc2c(c1)OCO2)[C@H](O)CN[C@H]1CC2(CCC2)Oc2ncc(CC(C)(C)C)cc21 [compound 888],3.4,,140,29,0.213,1.55,
C#Cc1cccc(C[C@H](NC(=O)[C@H]2CCCO2)[C@H](O)CN[C@H]2CC3(CCC3)Oc3ncc(CC(C)(C)C)cc32)c1 [compound 896],3.8,,73,45,0.006,0.009,
CO[C@H](C)C(=O)N[C@@H](Cc1cccc(-c2nccs2)c1)[C@H](O)CN[C@H]1CC2(CCC2)Oc2ncc([C@@H]3CC3(C)C)cc21 [compound 905],0.9,200,71,60,,,
CC1(C)C[C@H]1c1cnc2c(c1)[C@@H](NC[C@@H](O)[C@H](Cc1cccc(-c3nccs3)c1)NC(=O)[C@H]1CCCO1)CC1(CCC1)O2 [compound 906],0.4,100,63,94,,,
CC1(C)C[C@H]1c1cnc2c(c1)[C@@H](NC[C@@H](O)[C@H](Cc1cccc(-c3nccs3)c1)NC(=O)[C@@H]1CCCO1)CC1(CCC1)O2 [compound 907],0.5,100,78,77,,,
C#Cc1cccc(C[C@H](NC(=O)[C@@H](C)OC)[C@H](O)CN[C@H]2CC3(CCC3)Oc3ncc(CC(C)(C)C)cc32)c1F [compound 912],6.3,,60,35,0.013,1.19,
C#Cc1cccc(C[C@H](NC(=O)[C@@H]2CCCO2)[C@H](O)CN[C@H]2CC3(CCC3)Oc3ncc(CC(C)(C)C)cc32)c1F [compound 913],7.1,,76,41,0.021,0.063,
